Patent US20100004333A1, “COMPOSITIONS AND METHODS FOR TREATING CARDIOVASCULAR DISORDERS” (priority 2004, published 2010)

Tests used:
[1] = Oxidation of probucol or DTBP in hexane by 1e- and 2e-oxidants (HPLC, ion exchange chromatography); type: physicochemical; conditions: for Depletion: compound 1 mM in hexane, 60 min, 37° C.; for SO4^2− in aqueous phase of reaction mixture: oxidized with 5-mol equivalent HOCl, antioxidant-free mixture 58±5 nmol
Description: All other reagents were of the highest quality available. Buffers were routinely filtered, argon-flushed and stored at 4° C. prior to use. Solutions of HOCl were prepared freshly before use by diluting reagent HOCl (Aldrich) into phosphate buffer (250 mM, pH 7.0) and standardizing with ε235 nm˜100 M^−1cm^−1 (hypochlorous acid) and ε290 nm˜300 M^−1cm^−1 (hypochlorite), as described in Journal of Physical Chemistry 1966, 70:3798-3805. Animals: New Zealand White rabbits (2.5-3 kg) were obtained from a commercial farm (Wauchope, NSW Australia) and housed individually for the entire study period. […] Feed and water were provided ad libitum for a period of 4 weeks judged to be sufficient time for circulating drug levels to reach a maximum (data not shown). […] The local ethics committee approved the study. Vascular reactivity: Perfused rabbit aortas were harvested and vascular reactivity studies performed as described in Circulation 2003, 107:2031-2036. Briefly, within 2 h of isolation, ring segments ˜5 mm in length were mounted in a myobath system (World Precision Instruments, Sarasota, Fla.) containing 20 mL of Krebs solution aerated at 37° C. with 5% CO2(g), and the dilatory response of half maximally norepinephrine pre-constricted rings to incremental doses of ACh (10^−9-10^−5 mol/L) determined. Where indicated, reagent HOCl (final concentration 400 μM) was added to the Krebs solution and the rings incubated for 5 min prior to thorough washing, pre-constriction and assessment of vessel relaxation. In some studies rings were incubated with probucol or DTBP for 10 min, washed thoroughly and then exposed to HOCl prior to assessing endothelium-dependent relaxation. A maximum of three consecutive sequences of constriction/relaxation were performed for each ring. Preparation of Aortic Homogenates: Aortic Rings Used in the Vascular Function Studies were removed and immediately cut into small pieces, frozen in liquid nitrogen, and then pulverized and homogenized as described. An aliquot (50 μL) of homogenate was removed for protein determination (BCA assay, Sigma) and the remainder extracted into methanol/hexane (5:1, v/v), the resulting hexane fraction dried and the residue suspended in isopropanol for analysis of probucol and its oxidation products. For cGMP determinations, aortic segments were treated with vehicle (control) or HOCl (400 μM) before addition of 1 μM ACh in the presence of 200 μM 3-isobutyl-1-methylxanthine and measurement of cGMP in the homogenate using a kit (Cayman Chemical, Ann Arbor, Mich.). Probucol oxidation studies: Probucol is a highly lipophilic compound (partition coefficient between octanol and water=[…]) that readily distributes into lipoproteins. To mimic the biological situation, oxidation reactions were therefore performed with probucol (or DTBP) dissolved in hexane (2 mL) to which aliquots of HOCl were added to give the final concentrations indicated. The heterogeneous mixtures were shaken vigorously at 37° C. for 60 min, then placed on ice after adding 1 mL water, the hexane phase removed, dried under vacuum and resuspended in isopropanol (200 μL) for HPLC analyses (see below). The aqueous phase was analyzed for the content of sulfate anion (SO4^2−) by ion exchange chromatography (see below). Analytical analyses: Probucol, DTBP, BP and DPQ were analyzed by gradient reversed-phase HPLC and quantified by peak area comparison with authentic standards. Under the conditions used, BP, DTBP, probucol and DPQ eluted at 12.5, 19.2, 20.8 and 28.4 min, respectively. Other oxidation products resolved by this HPLC system were also quantified by peak area comparison, using analytically pure samples obtained from semi-preparative (LC-18, 20 mm×25 cm, 5 μm) fractionation of the reaction mixture. Isolated samples were dried under vacuum, re-dissolved to a known concentration and assessed for purity by analytical HPLC (LC-18, 4.6 mm×25 cm, 5 μm) in combination with mass spectrometry (see below). […]

[2] = Stopped-flow kinetics of reaction with HOCl in 70% aqueous ethanol; type: physicochemical; conditions: 70% EtOH, 25° C.
[3] = Oxidation of probucol or DTBP in hexane by 1e- and 2e-oxidants (HPLC, ion exchange chromatography); type: physicochemical; conditions: compound 1 mM in hexane, 60 min, 37° C.
[4] = versus 10.8 for octanol; cited from earlier work

Compound	Depletion ([1]; oxidant AAPH 5 mM) [%]	Depletion ([1]; oxidant HOCl 5 mM, air) [%]	SO4^2− in aqueous phase of reaction mixture [1] [nmol]	DPQ Yield ([3]; oxidant AAPH 5 mM) [µM]	DPQ Yield ([3]; oxidant Ce^4+ 5 mM) [µM]	Depletion ([3]; oxidant Ce^4+ 5 mM) [%]	DPQ Yield ([3]; oxidant Cu^2+ 5 mM) [µM]	Depletion ([3]; oxidant Cu^2+ 5 mM) [%]	DPQ Yield ([3]; oxidant Fe^2+/H2O2 5 mM) [µM]	Depletion ([3]; oxidant Fe^2+/H2O2 5 mM) [%]	DPQ Yield ([3]; oxidant H2O2 5 mM) [µM]	Depletion ([3]; oxidant H2O2 5 mM) [%]	DPQ Yield ([3]; oxidant HOCl 5 mM) [µM]	DPQ Yield ([3]; oxidant ONOO^− 5 mM) [µM]	Depletion ([3]; oxidant ONOO^− 5 mM) [%]	DPQ Yield ([3]; oxidant PbO2 5 mM) [µM]	Depletion ([3]; oxidant PbO2 5 mM) [%]	also measured
CC(C)(C)c1cc(SSc2cc(C(C)(C)C)c(O)c(C(C)(C)C)c2)cc(C(C)(C)C)c1O [DTBP, 4,4′-dithiobis(2,6-di-tert-butyl-phenol)]	0 ± 0	96 ± 3	204 ± 43	0 ± 0	89 ± 11	16 ± 1	0 ± 0	0 ± 0	4.8 ± 3.7	1 ± 0	0 ± 0	0 ± 0	91 ± 8.7	1.9 ± 0.6	6 ± 1	145 ± 8.9	99 ± 0.4	Rate constant k for oxidation by HOCl (single rate-determining process) [2]: 0.7±0.1×10^2 M^−1 s^−1
CC(C)(Sc1cc(C(C)(C)C)c(O)c(C(C)(C)C)c1)Sc1cc(C(C)(C)C)c(O)c(C(C)(C)C)c1 [probucol]	0 ± 0	> 90	139 ± 14	0 ± 0	78 ± 7.9	15 ± 2	0.9 ± 0.1	2 ± 1	8.7 ± 1.7	3 ± 1	0 ± 0	0 ± 0	102 ± 11	2.1 ± 0.2	7 ± 1	92 ± 21	> 90	Rate constant k1 for oxidation by HOCl (rapid phase of DPQ accumulation) [2]: 2.7±0.3×10^2 M^−1 s^−1; Rate constant k2 for oxidation by HOCl (slow phase of DPQ accumulation) [2]: 0.7±0.2×10^2 M^−1 s^−1; Depletion ([3]; oxidant HOCl 5 mM, air): 98 ± 4%; Depletion ([3]; oxidant PbO2 5 mM, listed as Probucol): 99 ± 1.1%; Partition coefficient between octanol and water [4]: 10
